These results are taken from US20230302131A1, “MPC INHIBITION FOR PRODUCING T-CELLS WITH A MEMORY PHENOTYPE” (UNIVERSITÉ DE LAUSANNE, priority 2020, published 2023).

One test has as its system B16-OVA tumor. Nature of the test: B16-OVA melanoma tumor model, adoptive cell transfer of pre-treated OT1 cells. Format: in vivo, mouse. How it is done: To assess the functional capacity of the generated memory T cells, the MPCi-treated cells were further tested in a mouse model of melanoma. Briefly, 10^5 ovalbumin-expressing B16 melanoma cells were injected subcutaneously in 6-week-old mice. At day 6 post-engraftment, when a palpable tumor was present, mice were irradiated with 5Gy. The next day 10^5 MPCi- or DMSO-treated OT1 cells were intravenously injected, followed by a subcutaneous vaccination of 50 μg CpG and 10 μg SIINFEKL (FIG. 2A). […] Confirming the Listeria data, the proportion of central memory CD8+ T cells in the spleen was increased upon MPCi treatment (FIG. 2C).
Activated CD45.1+OT-1 splenocytes were culture in vitro for 7 days as described above, collected and purified on a Ficoll gradient, allowing to separate dead and live splenocytes. Live splenocytes were counted with Trypan blue stain 0.4%. 100′000 live splenocytes were transferred into CD45.2+ host mice by tail vein injection.
B16-OVA cells were cultured in DMEM (GIBCO) with 10% FBS and 1% P/S before their subcutaneous injection into the mouse flank. Each mouse received 100′000 cells in a volume of 200 μl of PBS. 6 days after B16-OVA cells injection, tumors were measured, mice were randomized and lymphodepleted by irradiation (5 Gray). 7 days after B16-Ova injection, mice were adoptively transferred with the ACT protocol described previously. Following the ACT, mice received a vaccination of CpG (50 μg/mouse) and N4 Ova peptide (10 μg/mouse) diluted in PBS to obtain a total volume of 100 μl/mouse, injected subcutaneously at the tail base. Tumors were measured every 2 days and the tumor volume was calculated according to the formula: V=π×[d2×D]/6, where d is the minor tumor axis and D is the major tumor axis. At day 26 days post-tumor engraftment, tumors and spleens were dissected were then stained for flow cytometry analyses.
Antibody panel for intra-tumoral T cells and splenocytic T cells was: CD8-PE-texas-Red, CD45.1-Pacific blue, CD45.2-FITC, CD62L-PE-Cy7, CD44-APC-Cy7, PD1-APC, Lag3-PE, and CD127-FITC.
Antibody panel for cytokine detection contained: CD8-PE-texas-Red, CD45.1-FITC, CD45.2-APC, TNFa-Pacific blue, IFNg-PerCP-Cy5.5, IL-2-PE.

The test system of another test is adult human CD8 T cells. As to the kind of experiment: Adult human PBMC activation with anti-CD3/CD28 beads, T cell phenotype by flow cytometry. Format: cell-based. To be noted: adult PBMCs, day 9, vs DMSO. The procedure: FIG. 7: MPC inhibition during the activation and culture of adult human T cells induces a memory phenotype. (A) Experimental design. PBMCs were isolated from adult healthy volunteers and activated with anti-CD3/CD28 beads in the presence of DMSO or UK5099 (25 μM). Beads were removed at day 5 and T cell phenotype was analysed at day 9. (B) Percentage of CD8 T cells expressing the memory marker CD62L. (C) The mean fluorescent intensity of CD62L in the respective positive population. (D) Percentage of CD8 T cells expressing markers that allows their identification as stem cell memory T cells (TSCM). (E-F) Mitochonrial mass (identified by MitoGreen staining, E) and mitochondrial membrane potential (TMRM, F), measured by flow cytometry and expressed as fold change as compared to DMSO. (G) Mitochondrial membrane potential normalized for the mitochondrial mass, expressed as the ratio of […], fold change as compared to DMSO. Pooled data from 2 independant experiments. ns: non-significant, *p<0.05, **[…], ***p<0.001. Data represents mean±s.e.m.
Heparinised blood was diluted with PBS and pipetted on top of Ficoll-paque (LymphoPrep). After centrifugation at 1800 rpm for 20 minutes at room temperature, the layer of cells at the intersection, containing the PBMCs was removed, washed and resuspended at 5×10^5 cells/ml of RPMI medium containing 8% human serum (AB serum), antibiotics, 2 mM L-Glutamine, 1% non-essential amino acids, 1 mM sodium pyruvate and 50 μM β-mercaptoethanol (all Gibco). Cells were activated with Human T-activator CD3/CD28 Dynabeads at a 1 bead/cell ratio with 150 IU/ml human recombinant IL2 and DMSO or 25 μM UK5099. Throughout the culture, cells were regularly split when necessary and beads were removed at day 5. At day 9, a fraction of the cells was stained with antibodies for flow cytometry analysis or for mitochondrial analysis.
(In general: In flow cytometry, cells or beads pass a laser one at a time.)

A further test concerns OT2 CD4 T cells. As to the kind of experiment: OT2 CD4 T cell co-culture with dendritic cells, CD62L by flow cytometry. The test is classed as cell-based, mouse. To be noted: 75 μM; day 7; vs DMSO. The procedure:
Naïve CD4 T cells were isolated by negative selection (Stem Cell Technologies) from the spleen of OT2 mice. Dendritic cells were isolated from spleens of C57BL/6 mice by CD11c positive selection (Stem Cell Technologies). 2×10^5 CD4 T cells were co-cultured with 1×10^6 dendritic cells in RPMI medium supplemented with 10% FBS, 1% Penicillin/Streptomycin, 50 μM β-mercaptoethanol, 1% HEPES, 1× Non-essential amino acids (Gibco 11140-035), 2 mM L-glutamine and 1 mM Sodium Pyruvate. T cells were activated by adding 1 μg/ml Ovalbumine peptide (323-339, ISQAVHAAHAEINEAGR) and 100 IU/ml rhIL-2, in the presence of 75 μM UK5099 or DMSO. Cells were split on day 4 and re-cultured in fresh medium containing 100 IU/ml rhIL-2, in the presence of 75 μM UK5099 or DMSO.
An experiment has been performed on mouse T cells in order to evaluate if MPC inhibition also promotes memory marker expression in CD4 T cells. As indicated in the experimental scheme (FIG. 5A), CD4 T cells from OT2 mice were activated by co-culture with dendritic cells. OT2 mice are transgenic for an […] recognizing specifically a chicken ovalbumine peptide 323-339 associated with the mouse MHC class II molecule I-Ab. We activated OT2 CD4 T cells by co-culture with dendritic cells loaded with […] of the ovalbumine peptide in the presence of 100 IU/ml recombinant human IL2 in the presence of 75 μM UK5099 or DMSO control. […]

Entries after “also recorded” stand apart in the source; their conditions may differ.

On to `N#CC(=Cc1cn(-c2ccccc2)c2ccccc12)C(=O)O` [UK5099, 2-cyano-3-(1-phenyl-1H-indol-3-yl)-2-propenoic acid], for which, in the test on B16-OVA tumor (CD44 and CD62L double positive of transferred cells), the “proportion of central memory CD8+ T cells in the spleen” value is listed as “increased”. Moreover, the B16 tumor growth result in the test with B16-OVA tumor (mice that received 10^5 pre-treated OT1 CD8+ T cells, compared to DMSO, listed as MPCi) is reported as “enhanced anti-tumoral activity; also recorded: strongly reduced”. For the same compound, in the test on B16-OVA tumor (transferred CD8+CD45.1+ population in the tumor, vs DMSO), the “expression of PD-1 in T cells infiltrating the tumor” value is “significantly decreased”. For the same compound, the “cells double positive for IFNγ and TNF upon restimulation” value in the test on B16-OVA tumor (tumor single cell suspension restimulated with SIINFEKL for 4 h) was “higher proportion”. The “percentage of transferred cells out of total CD8+ T cells in spleen and tumor” value in the test with B16-OVA tumor (upon dissection, data not shown) is on record as “not strikingly different”. Also, in the test on adult human CD8 T cells (25 μM), the “population of stem cell-like memory T cells (TSCM)” value is “increased”. In addition, in the test on adult human CD8 T cells (UK5099 25 μM), the “population of CD8 T cells positive for CD62L” value is reported as “further induce”. In the test on adult human CD8 T cells, the “mean fluorescent intensity of the CD62L signal in the CD62L-positive cells” value is given as “increased”. Besides, the “CD62L-positive population of mouse CD4 T cells” value with OT2 CD4 T cells is recorded as “strong increase”.
